# Laboratory results published in patent US20100041665A1, “N-PHENYL-PRENYLAMINE DERIVATIVES FOR THE TREATMENT OF COGNITIVE, NEURODEGENERATIVE OR NEURONAL DISEASES OR DISORDERS” (NOSCIRA, S.A., priority 2006, published 2010).
# Experiments:
# [1] = target: Recombinant human glycogen synthase kinase 3 beta (Homo sapiens, UniProt P49841); test: GSK-3 beta inhibition assay; type: biochemical; conditions: percentage of enzyme activity; for remaining activity at 25 µM / remaining activity at 50 µM: 0.5 h
# Method: GSK-3 beta Inhibition Assay
# The GSK-3 beta activity of the compounds of formula (I) according to the present invention was determined by incubation of a mixture of recombinant human GSK-3 enzyme, a phosphate source and GSK-3 substrate in the presence and in the absence of the corresponding test compound, and by measuring the GSK-3 activity of this mixture. The compounds where tested at final concentrations of 25 and 50 μM.
# Recombinant human glycogen synthase kinase 3 beta was assayed in MOPS 11 mM, pH 7.4, EDTA 0.2 mM, EGTA 1.25 mM, MgCl2 26.25 mM and sodium orthovanadate 0.25 mM in the presence of 62.5 μM of Phospho-Glycogen Synthase Peptide-2 (GS-2), 0.5 μCi gamma-^33P-ATP and unlabelled ATP at a final concentration of 12.5 μM. The final assay volume was 20 μl. After incubation for 30 minutes at 30° C., 15 μl aliquots were spotted onto P81 phosphocellulose papers. Filters were washed four times for at least 10 minutes each and counted with 1.5 ml of scintillation cocktail in a scintillation counter.
# (§1) The compounds of formula (I) of the present invention where submitted to the above indicated assays, in order to determine both their GSK-3 inhibition activity and BACE activity inhibition. The results are indicated in Table I and Table II, in percentage of the respective enzyme activity.
# [2] = target: T1, rhBACE-1 β-Secretase recombinant human (Homo sapiens, UniProt P56817); test: BACE assay (FRET); type: biochemical; conditions: percentage of enzyme activity
# T1 construct: purchased R&D Systems 931-AS
# From the text: The aim of this assay is to determine if a compound, either synthetic or of marine origin, is a BACE-1 inhibitor, to avoid the formation of Aβ. This assay is based on FRET technology (Fluorescence Resonance Energy Transfer). FRET is used to measure cleavage of a peptide substrate, among other uses. […] When a substrate peptide cleavage occurs, the energy balance is broken and all the donor fluorescence can be observed. The increase in fluorescence is linearly related to the rate of proteolysis (Gordon, G W et al., 1998). In this assay the reaction occurs between an enzyme, purified BACE-1, and a fluorogenic peptidic substrate who present the “Swedish mutation”. The peptide cleavage by BACE-1 produces fluorescence energy and enzymatic activity can be quantified.
# The reagents which are used in this assay are the following: • rhBACE-1 β-Secretase recombinant human (R&D Systems. Ref. 931-AS). • Fluorogenic Peptide Substrate IV (R&D Systems. Ref. ES004). • Beta-SECRETASE INHIBITOR H-4848. (BACHEM. Ref. H-4848.0001). • Sodium acetate.
# The assay is carried out in a 96 wells microplate. The final concentration of substrate is 3.5 μM per well, and the enzyme concentration is 0.5 μg/ml. The final volume of the assay is 100 μl per well and all reagents are diluted in Reaction Buffer. The compounds are tested at a concentration of 10^−5 and 10^−6 M. The control in the assay is the commercial inhibitor β-Secretase inhibitor H-4848 from BACHEM, which is tested at 300 nM. All the samples and controls are studied by duplicate.
# The plate is mixed gently and changes in the fluorescence are measured using a fluorimeter plate reader, with 320 nm excitation filter and 405 nm emission filter. The temperature should be preferably maintained between 25 and 30° C. Measurements are carried out every ten minutes during an hour. The first measure is subtracted from the last to calculate the fluorescence increase, evaluating the enzymatic activity. The 100% activity is calculated as the mean of the results of wells without sample or inhibitor.
# In the cases where abnormal effects in fluorescence were detected, BACE inhibition activity was assayed using BACE-1 (beta-Secretase) FRET ASSAY KIT (Invitrogen, Ref. P2985). Fluorescence was measured with a fluorimeter plate reader, with 544 nm excitation filter and 580 nm emission filter.
# as §1
# T1 sequence (P56817 46-457 limits assumed): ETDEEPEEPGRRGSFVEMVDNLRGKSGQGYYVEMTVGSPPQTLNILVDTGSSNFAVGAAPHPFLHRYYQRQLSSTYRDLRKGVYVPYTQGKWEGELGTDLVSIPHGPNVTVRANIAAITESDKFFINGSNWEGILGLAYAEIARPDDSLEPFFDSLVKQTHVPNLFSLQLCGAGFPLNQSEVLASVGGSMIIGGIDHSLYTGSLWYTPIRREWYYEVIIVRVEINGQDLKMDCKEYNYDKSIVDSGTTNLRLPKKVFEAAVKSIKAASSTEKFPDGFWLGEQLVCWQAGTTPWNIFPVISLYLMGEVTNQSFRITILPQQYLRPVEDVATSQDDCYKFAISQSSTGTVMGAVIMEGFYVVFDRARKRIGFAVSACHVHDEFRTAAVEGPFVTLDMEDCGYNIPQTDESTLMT
# Recombinant human glycogen synthase kinase 3 beta, sequence (P49841 whole entry): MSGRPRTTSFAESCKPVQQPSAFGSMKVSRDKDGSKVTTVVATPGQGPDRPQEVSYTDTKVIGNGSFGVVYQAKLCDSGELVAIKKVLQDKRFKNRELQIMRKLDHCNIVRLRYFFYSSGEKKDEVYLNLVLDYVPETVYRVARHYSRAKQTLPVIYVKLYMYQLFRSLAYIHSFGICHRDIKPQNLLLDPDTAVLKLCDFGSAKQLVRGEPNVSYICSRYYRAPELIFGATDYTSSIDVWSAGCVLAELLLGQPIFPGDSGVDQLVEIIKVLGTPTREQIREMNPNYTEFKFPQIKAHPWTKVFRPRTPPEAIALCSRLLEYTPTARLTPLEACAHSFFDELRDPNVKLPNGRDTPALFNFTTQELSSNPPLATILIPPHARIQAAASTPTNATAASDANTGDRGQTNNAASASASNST
SMILES,remaining activity at 25 µM ([1]; compound at 25 μM),remaining activity at 50 µM ([1]; compound at 50 μM),% of BACE activity ([2]; compound at 1 μM),% of BACE activity ([2]; compound at 10 μM),% GSK-3 beta activity ([1]; compound at 25 μM),% GSK-3 beta activity ([1]; compound at 50 μM)
COc1ccc(C(=O)O)cc1NC/C=C(\C)CC/C=C(\C)CCC=C(C)C [Compound 5],70.2%,52.8%,50 ± 9%,0%,–,–
COC(=O)c1cccc(NC/C=C(\C)CC/C=C(\C)CCC=C(C)C)c1 [Compound 7],–,54.7%,0%,0%,–,–
CC(C)=CCC/C(C)=C/CC/C(C)=C/CNc1cccc(C(=O)O)c1 [Compound 9],84.1%,39.6%,89.5 ± 9%,25.5 ± 6%,–,–
"COc1ccccc1NCC=C(C)CCC=C(C)CCC=C(C)C [Compound 12, (2-Methoxy-phenyl)-(3,7,11-trimethyl-dodeca-2,6,10-trienyl)-amine]",74.8%,56.7%,94 ± 8%,64.5 ± 9%,–,–
"CC(C)=CCCC(C)=CCNc1cccc(C(=O)O)c1 [Compound 13, 3-(3,7-Dimethyl-octa-2,6-dienylamino)-benzoic acid]",55.5%,35.5%,75 ± 5%,70 ± 19%,–,–
COCOc1ccc(C(=O)OC)cc1NC/C=C(\C)CC/C=C(\C)CCC=C(C)C [Compound 14],61.8%,25.4%,60 ± 17%,4 ± 6%,–,–
COC(=O)c1ccc(OC)c(N(C/C=C(\C)CCC=C(C)C)C/C=C(\C)CCC=C(C)C)c1 [Compound 17],–,–,43 ± 15%,0%,73.2%,42.14%
COC(=O)c1ccc(OC)c(N(C/C=C(\C)CC/C=C(\C)CCC=C(C)C)C/C=C(\C)CC/C=C(\C)CCC=C(C)C)c1 [Compound 18],56.6%,5.35%,100%,100%,–,–
"COc1ccc(C(=O)O)cc1N(CC=C(C)CCC=C(C)CCC=C(C)C)CC=C(C)CCC=C(C)CCC=C(C)C [Compound 19, 3-[Bis-(3,7,11-trimethyl-dodeca-2,6,10-trienyl)-amino]-4-methoxy-benzoic acid]",30.6%,15.3%,60 ± 14%,46 ± 28%,–,–
"COC(=O)c1cccc(N(CC=C(C)CCC=C(C)C)CC=C(C)CCC=C(C)C)c1 [Compound 20, 3-[Bis-(3,7-dimethyl-octa-2,6-dienyl)-amino]-benzoic acid methyl ester]",67.3%,36.2%,76 ± 25%,3 ± 5%,–,–
CC(C)=CCC/C(C)=C/CC/C(C)=C/CN(C/C=C(\C)CC/C=C(\C)CCC=C(C)C)c1cccc(C(=O)O)c1 [Compound 23],37.4%,21.6%,41 ± 12%,0%,–,–
CC(C)=CCC/C(C)=C/CN(C/C=C(\C)CCC=C(C)C)c1cccc(C(=O)O)c1 [Compound 24],37.4%,24.6%,24 ± 12%,1.6 ± 2%,–,–
COc1ccccc1N(C/C=C(\C)CCC=C(C)C)C/C=C(\C)CCC=C(C)C [Compound 27],90.7%,59.6%,88.5 ± 0.7%,51 ± 16%,–,–
"COC(=O)c1ccc(O)c(N(CC=C(C)CCC=C(C)CCC=C(C)C)CC=C(C)CCC=C(C)CCC=C(C)C)c1 [Compound 28, 3-[Bis-(3,7,11-trimethyl-dodeca-2,6,10-trienyl)-amino]-4-hydroxy-benzoic acid methyl ester]",48.5%,20.7%,83 ± 12%,40.5 ± 19%,–,–
COC(=O)c1ccc(O)c(N(C/C=C(\C)CCC=C(C)C)C/C=C(\C)CCC=C(C)C)c1 [Compound 29],71.3%,40.4%,2.5 ± 3.5%,0 ± 0%,–,–
COC(=O)c1ccc(OC)c(N(C/C=C(\C)CCC=C(C)C)C/C=C(\C)CCC=C(C)C)c1 [Compound 30],–,–,48 ± 6%,33 ± 7%,17.31%,0.17%
COC(=O)c1ccc(OC(C)=O)c(N(C/C=C(\C)CCC=C(C)C)C/C=C(\C)CCC=C(C)C)c1 [Compound 31],108%,17.4%,89.5 ± 18%,4.5 ± 6%,–,–
"COC(=O)c1ccc(OC)c(N(CC=C(C)CCC=C(C)CCC=C(C)C)C(=O)OC(C)(C)C)c1 [Compound 33, 3-[tert-Butoxycarbonyl-(3,7,11-trimethyl-dodeca-2,6,10-trienyl)-amino]-4-methoxy-benzoic acid methyl ester]",27.9%,19.8%,92 ± 4%,61 ± 17%,–,–
"COC(=O)c1ccc(OC)c(NCC=C(C)CCC=C(C)CCC=C(C)CCC=C(C)C)c1 [Compound 34, 4-Methoxy-3-(3,7,11,15-tetramethyl-hexadeca-2,6,10,14-tetraenylamino)-benzoic acid methyl ester]",34.7%,19.1%,100%,100%,–,–
"COC(=O)c1ccc(OC)c(N(CC=C(C)CCC=C(C)CCC=C(C)CCC=C(C)C)CC=C(C)CCC=C(C)CCC=C(C)CCC=C(C)C)c1 [Compound 35, 3-[Bis-(3,7,11,15-tetramethyl-hexadeca-2,6,10,14-tetraenyl)-amino]-4-methoxy-benzoic acid methyl ester]",105%,97.9%,91 ± 9%,41 ± 14%,–,–
"COC(=O)c1ccc(OC)c(NCC=C(C)CCC=C(C)COC2CCCCO2)c1 (stereo not shown) [Compound 36, 3-[3,7-Dimethyl-8-(tetrahydro-pyran-2-yloxy)-octa-2,6-dienylamino]-4-methoxy-benzoic acid methyl ester]",79.7%,80.1%,45 ± 12%,7 ± 7%,–,–
COc1ccc(C(=O)NCCCO)cc1N(C/C=C(\C)CCC=C(C)C)C/C=C(\C)CCC=C(C)C [Compound 42],106%,110%,–,–,–,–
CCCOc1ccc(C(=O)OC)cc1N(C/C=C(\C)CC/C=C(\C)CCC=C(C)C)CCC [Compound 44],79.6%,8.26%,–,–,–,–
COc1ccc(C(=O)/N=C(\N)NCCCO)cc1N(C/C=C(\C)CCC=C(C)C)C/C=C(\C)CCC=C(C)C [Compound 45],125%,111%,–,–,–,–
COc1ccc(C(=O)/N=C(\N)NCCO)cc1N(C/C=C(\C)CCC=C(C)C)C/C=C(\C)CCC=C(C)C [Compound 47],34.7%,19.1%,–,–,–,–
